Assays:
Assay in all cases: relative viability (nuclei count vs DMSO), 5 days (fraction); higher = more cells survive
NCI-H1563 = tested on: NCI-H1563
Outline: (§1)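 Each reported value is a median over duplicate plates. It expresses relative viability: treated-well nuclei count divided by vehicle-well nuclei count. Lung cancer cell lines in 1536-well plates were dosed by pin tool a day after seeding, alone with one drug or with a fixed anchor-drug dose plus five library-drug doses (not always all listed) in √10 steps, and nuclei were counted after 5 days.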

NCI-H650 = tested on: NCI-H650
Outline: as §1

HARA = tested on: HARA
Outline: as §1

201T = tested on: 201T
Outline: as §1

BEN = tested on: BEN
Outline: as §1

LU99A = tested on: LU99A
Outline: as §1

EMC-BAC-2 = tested on: EMC-BAC-2
Outline: as §1

NCI-H2087 = tested on: NCI-H2087
Outline: as §1

NCI-H2126 = tested on: NCI-H2126
Outline: as §1

LOU-NH91 = tested on: LOU-NH91
Outline: as §1

SK-MES-1 = tested on: SK-MES-1
Outline: as §1

NCI-H1993 = tested on: NCI-H1993
Outline: as §1

HCC-78 = tested on: HCC-78
Outline: as §1

RERF-LC-KJ = tested on: RERF-LC-KJ
Outline: as §1

H3255 = tested on: H3255
Outline: as §1

LC-2-ad = tested on: LC-2-ad
Outline: as §1

LXF-289 = tested on: LXF-289
Outline: as §1

NCI-H2170 = tested on: NCI-H2170
Outline: as §1

HOP-62 = tested on: HOP-62
Outline: as §1

UMC-11 = tested on: UMC-11
Outline: as §1

COR-L 105 = tested on: COR-L 105
Outline: as §1

Cc1cn(-c2cc(NC(=O)c3ccc(C)c(Nc4nccc(-c5cccnc5)n4)c3)cc(C(F)(F)F)c2)cn1 [Nilotinib] + C[C@@H](Oc1cc(-c2cnn(C3CCNCC3)c2)cnc1N)c1c(Cl)ccc(F)c1Cl [Crizotinib] (partner 1 µM)
relative viability (NCI-H1563; first compound 0.001 µM): 0.772
relative viability (NCI-H1563; first compound 0.003162 µM): 0.856
relative viability (NCI-H1563; first compound 0.01 µM): 0.757
relative viability (NCI-H1563; first compound 0.03162 µM): 0.914
relative viability (NCI-H1563; first compound 0.1 µM): 0.739
relative viability (NCI-H650; first compound 0.001 µM): 0.637
relative viability (NCI-H650; first compound 0.003162 µM): 0.551
relative viability (NCI-H650; first compound 0.01 µM): 0.844
relative viability (NCI-H650; first compound 0.03162 µM): 0.601
relative viability (NCI-H650; first compound 0.1 µM): 0.715
relative viability (HARA; first compound 0.001 µM): 1.09
relative viability (HARA; first compound 0.003162 µM): 1.42
relative viability (HARA; first compound 0.01 µM): 1.61
relative viability (HARA; first compound 0.03162 µM): 0.886
relative viability (HARA; first compound 0.1 µM): 1.05
relative viability (201T; first compound 0.001 µM): 1.01
relative viability (201T; first compound 0.003162 µM): 1.07
relative viability (201T; first compound 0.01 µM): 0.91
relative viability (201T; first compound 0.1 µM): 1.07
relative viability (BEN; first compound 0.001 µM): 0.731
relative viability (BEN; first compound 0.003162 µM): 0.978
relative viability (BEN; first compound 0.01 µM): 1.21
relative viability (BEN; first compound 0.1 µM): 0.971
relative viability (LU99A; first compound 0.001 µM): 0.542
relative viability (LU99A; first compound 0.003162 µM): 0.545
relative viability (LU99A; first compound 0.01 µM): 0.629
relative viability (LU99A; first compound 0.03162 µM): 0.429
relative viability (LU99A; first compound 0.1 µM): 0.343
relative viability (EMC-BAC-2; first compound 0.001 µM): 0.676
relative viability (EMC-BAC-2; first compound 0.003162 µM): 0.682
relative viability (EMC-BAC-2; first compound 0.01 µM): 0.795
relative viability (EMC-BAC-2; first compound 0.03162 µM): 0.673
relative viability (EMC-BAC-2; first compound 0.1 µM): 0.753
relative viability (NCI-H2087; first compound 0.001 µM): 0.626
relative viability (NCI-H2087; first compound 0.003162 µM): 0.806
relative viability (NCI-H2087; first compound 0.01 µM): 0.947
relative viability (NCI-H2087; first compound 0.03162 µM): 0.702
relative viability (NCI-H2087; first compound 0.1 µM): 0.667
relative viability (NCI-H2126; first compound 0.001 µM): 1.02
relative viability (NCI-H2126; first compound 0.003162 µM): 1.23
relative viability (NCI-H2126; first compound 0.01 µM): 1.39
relative viability (NCI-H2126; first compound 0.03162 µM): 0.966
relative viability (NCI-H2126; first compound 0.1 µM): 0.943
relative viability (LOU-NH91; first compound 0.001 µM): 0.763
relative viability (LOU-NH91; first compound 0.003162 µM): 0.722
relative viability (LOU-NH91; first compound 0.01 µM): 0.76
relative viability (LOU-NH91; first compound 0.03162 µM): 0.722
relative viability (LOU-NH91; first compound 0.1 µM): 0.768
relative viability (SK-MES-1; first compound 0.003162 µM): 1.09
relative viability (SK-MES-1; first compound 0.01 µM): 1.06
relative viability (SK-MES-1; first compound 0.03162 µM): 0.994
relative viability (SK-MES-1; first compound 0.1 µM): 0.982
relative viability (NCI-H1993; first compound 0.001 µM): 0.998
relative viability (NCI-H1993; first compound 0.003162 µM): 0.838
relative viability (NCI-H1993; first compound 0.01 µM): 0.994
relative viability (NCI-H1993; first compound 0.03162 µM): 0.762
relative viability (NCI-H1993; first compound 0.1 µM): 0.887
relative viability (HCC-78; first compound 0.001 µM): 0.351
relative viability (HCC-78; first compound 0.003162 µM): 0.239
relative viability (HCC-78; first compound 0.01 µM): 0.432
relative viability (HCC-78; first compound 0.03162 µM): 0.333
relative viability (HCC-78; first compound 0.1 µM): 0.361
relative viability (RERF-LC-KJ; first compound 0.001 µM): 0.872
relative viability (RERF-LC-KJ; first compound 0.003162 µM): 0.891
relative viability (RERF-LC-KJ; first compound 0.01 µM): 0.917
relative viability (RERF-LC-KJ; first compound 0.03162 µM): 0.814
relative viability (RERF-LC-KJ; first compound 0.1 µM): 0.867
relative viability (H3255; first compound 0.001 µM): 0.773
relative viability (H3255; first compound 0.003162 µM): 0.99
relative viability (H3255; first compound 0.01 µM): 1.07
relative viability (H3255; first compound 0.03162 µM): 0.814
relative viability (H3255; first compound 0.1 µM): 1.11
relative viability (LC-2-ad; first compound 0.001 µM): 0.43
relative viability (LC-2-ad; first compound 0.003162 µM): 0.436
relative viability (LC-2-ad; first compound 0.01 µM): 0.449
relative viability (LC-2-ad; first compound 0.03162 µM): 0.42
relative viability (LC-2-ad; first compound 0.1 µM): 0.522
relative viability (LXF-289; first compound 0.001 µM): 0.806
relative viability (LXF-289; first compound 0.003162 µM): 0.885
relative viability (LXF-289; first compound 0.01 µM): 0.923
relative viability (LXF-289; first compound 0.03162 µM): 0.731
relative viability (LXF-289; first compound 0.1 µM): 0.765
relative viability (NCI-H2170; first compound 0.001 µM): 1.12
relative viability (NCI-H2170; first compound 0.003162 µM): 1.21
relative viability (NCI-H2170; first compound 0.01 µM): 1.61
relative viability (NCI-H2170; first compound 0.03162 µM): 0.915
relative viability (NCI-H2170; first compound 0.1 µM): 1.19
relative viability (HOP-62; first compound 0.001 µM): 0.738
relative viability (HOP-62; first compound 0.003162 µM): 1.22
relative viability (HOP-62; first compound 0.01 µM): 1.13
relative viability (HOP-62; first compound 0.03162 µM): 0.796
relative viability (HOP-62; first compound 0.1 µM): 0.738
relative viability (UMC-11; first compound 0.001 µM): 0.561
relative viability (UMC-11; first compound 0.003162 µM): 0.525
relative viability (UMC-11; first compound 0.01 µM): 0.585
relative viability (UMC-11; first compound 0.1 µM): 0.68
relative viability (COR-L 105; first compound 0.001 µM): 0.821
relative viability (COR-L 105; first compound 0.01 µM): 0.796
relative viability (COR-L 105; first compound 0.03162 µM): 0.668
relative viability (COR-L 105; first compound 0.1 µM): 0.662

— the supplement of paper PMC10307832
